Experimental data taken from PMC6335953, “Triggering the expression of a silent gene cluster from genetically intractable bacteria results in scleric acid discovery” (Chemical Science, 2018).

What was measured:
[1] = tested on: T1, Staphylococcus aureus USA300; experiment: microbe, parasite or virus in culture; parameters: CLSI broth microdilution MIC in 96-well plates, cation-adjusted Mueller-Hinton broth
T1 construct: USA300 (ATCC BAA-1717)
Procedure: (§1) The susceptibility of bacterial strains was investigated in collaboration with the Warwick Antimicrobial Screening Facility in a 96-well plate experiment, according to the Clinical & Laboratory Standards Institute (CLSI) guidelines (M7-A9 2012). Scleric acid was diluted to a concentration of 7.5 mg mL^–1 in 25% DMSO in distilled water. […] This was then further doubling diluted throughout the MIC. Meropenem and cefoxitin were used as positive controls during MIC testing. The antimicrobial activity of scleric acid was assessed. Inhibitory activity against representatives of the ESKAPE panel of pathogens: Enterococcus faecium, Staphylococcus aureus, Klebsiella pneumoniae, Acinetobacter baumannii, Pseudomonas aeruginosa, and Enterobacter cloacae was first screened but all strains appeared to be resistant to scleric acid, giving no observable MIC (ESI Table S6 ^†).

[2] = tested on: T2, Enterobacter cloacae NCTC 13405; experiment: microbe, parasite or virus in culture; parameters: CLSI broth microdilution MIC in 96-well plates, cation-adjusted Mueller-Hinton broth; settings: NCTC13405
T2 construct: NCTC 13405
Procedure: as §1

[3] = tested on: T3, Klebsiella pneumoniae ATCC 700603; experiment: microbe, parasite or virus in culture; parameters: CLSI broth microdilution MIC in 96-well plates, cation-adjusted Mueller-Hinton broth; settings: ATCC700603
T3 construct: ATCC 700603
Procedure: as §1

[4] = tested on: T4, Enterococcus faecium ATCC 12202; experiment: microbe, parasite or virus in culture; parameters: CLSI broth microdilution MIC in 96-well plates, cation-adjusted Mueller-Hinton broth; settings: ATCC12202
T4 construct: ATCC 12202
Procedure: as §1

[5] = tested on: T5, Pseudomonas aeruginosa ATCC 27853; experiment: microbe, parasite or virus in culture; parameters: CLSI broth microdilution MIC in 96-well plates, cation-adjusted Mueller-Hinton broth; settings: ATCC27853
T5 construct: ATCC 27853
Procedure: as §1

[6] = tested on: T6, Acinetobacter baumanii ATCC 19606; experiment: microbe, parasite or virus in culture; parameters: CLSI broth microdilution MIC in 96-well plates, cation-adjusted Mueller-Hinton broth; settings: Acinetobacter baumannii, ATCC19606
T6 construct: ATCC 19606
Procedure: as §1

[7] = target: T7, nicotinamide N-methyltransferase (NNMT) (Homo sapiens, UniProt P40261); experiment: NNMT concentration-response assay (MNAN and SAH product readouts), Eli Lilly OIDD; enzyme source not stated in main text; assay type: biochemical
T7 sequence (P40261 1-264): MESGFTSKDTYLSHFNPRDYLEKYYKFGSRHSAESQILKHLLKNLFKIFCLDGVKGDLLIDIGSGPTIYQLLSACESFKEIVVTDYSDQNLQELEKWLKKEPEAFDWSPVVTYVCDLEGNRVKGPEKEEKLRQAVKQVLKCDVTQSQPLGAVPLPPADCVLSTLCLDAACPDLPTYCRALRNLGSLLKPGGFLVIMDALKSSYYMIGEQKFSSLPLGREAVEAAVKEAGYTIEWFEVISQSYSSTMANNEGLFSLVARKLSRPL

O=C(OCC(=O)N1CCC[C@H]1C(=O)O)c1ccccc1 [compound 2, (2-(benzoyloxy)acetyl)-L-proline]
MIC [1]: > 1020 µg/mL | MIC [2]: > 1020 µg/mL | MIC [3]: > 1020 µg/mL | MIC [4]: > 1020 µg/mL | MIC [5]: > 1020 µg/mL | MIC [6]: > 1020 µg/mL | IC50 [7]: 178 µM
